Counter-ions that a name gives are not always drawn. Like-named read-outs stand apart in the source and are kept apart here.
Assays:
[1] = tested on: MLKL phosphorylation in HT29-L23 human colorectal adenocarcinoma cells; assay: MLKL Phosphorylation High-Content Assay; format: cell-based; details: 6 h, necroptosis induced with TNFα, SMAC mimetic and Z-VAD, read-out: pMLKL (IC50)
Procedure, shortened: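 HT29-L23 cells were induced to necroptosis with TNFα (35 ng/mL), SMAC mimetic (700 nM) and Z-VAD (140 nM) for 6 h at 37 °C. Phospho-MLKL (S358) immunofluorescence was imaged and quantified per cell; maximal inhibition set by Nec-1s (6.25 μM), and IC50/Ymax from 4-parameter logistic fit.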

[2] = target: His-GST-TVMV-hRIPK1 (1-324) (Homo sapiens (Human), UniProt Q13546); assay: RIPK1 HTRF Binding Assay; details: read-out: RIPK1 HTRF (IC50); FRET probe displacement, 1 h at rt
Sequence of His-GST-TVMV-hRIPK1 (1-324) (Q13546 1-324): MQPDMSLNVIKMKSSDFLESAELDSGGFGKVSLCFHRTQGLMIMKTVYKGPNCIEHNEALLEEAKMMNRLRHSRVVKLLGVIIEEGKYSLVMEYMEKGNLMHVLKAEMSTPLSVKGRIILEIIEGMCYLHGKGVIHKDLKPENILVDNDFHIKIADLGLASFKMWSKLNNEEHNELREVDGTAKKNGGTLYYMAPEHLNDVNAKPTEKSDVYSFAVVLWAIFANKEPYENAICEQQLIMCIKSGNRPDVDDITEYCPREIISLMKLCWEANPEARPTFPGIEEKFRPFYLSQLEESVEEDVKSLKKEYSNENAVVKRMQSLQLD

Row | Structure (SMILES) | IC50 ([1]; Homo sapiens) [nM] | IC50 [2] [nM] | IC50 [1] [nM]
1 | CNC(=O)c1n[nH]c2cc(-c3cc(C(=O)NC(C)c4ccccc4OC(F)(F)F)c(C)nc3C)ccc12 (stereo not shown) [Example 162, 6-[2,6-dimethyl-5-({1-[2-(trifluoromethoxy)phenyl]-ethyl}carbamoyl)pyridin-3-yl]-N-methyl-1H-indazole-3-carboxamide] | 74 | 43 | 
2 | CNC(=O)c1n[nH]c2cc(-c3cnc(OC)c(C(=O)NCC4(C(=O)OC5CCCC5)CC4)c3)ccc12 [Example 140, cyclopentyl 1-[({2-methoxy-5-[3-(methylcarbamoyl)-1H-indazol-6-yl]pyridin-3-yl}-formamido)methyl]cyclopro-pane-1-carboxylate] |  | 6.9 | 18
3 | CNC(=O)c1n[nH]c2cc(-c3cnc(OC)c(C(=O)NCc4ncccc4OCC4CCC4)c3)ccc12 [Example 117, 6-[5-({[3-(cyclobutylmethoxy)-pyridin-2-yl]methyl}carbam-oyl)-6-methoxypyridin-3-yl]-N-methyl-1H-indazole-3-carboxamide, TFA] |  | 2.6 | 11
4 | [2H]C([2H])([2H])Oc1ncc(-c2ccc3c(C(=O)NC)n[nH]c3c2)cc1C(=O)NCC[C@H](O)c1ccc(Cl)cc1 [Example 27, 6-(5-{[(3S)-3-(4-chlorophenyl)-3-hydroxypropyl]carbamoyl}-6-(deutero)methoxypyridin-3-yl)-N-methyl-1H-indazole-3-carbox-amide, TFA] | 8 | 2.5 | 
5 | [2H]C([2H])([2H])NC(=O)c1n[nH]c2cc(-c3cnc(OC)c(C(=O)NCC(C)(C)C(=O)OC(C)(C)C)c3)ccc12 [Example 149, tert-butyl 3-[(2-methoxy-5-{3-[(deutero)methylcarbamoyl]-1H-indazol-6-yl}pyridin-3-yl)-formamido]-2,2-dimethyl-propanoate] | 74 | 33 | 
6 | CNC(=O)c1n[nH]c2cc(-c3cnc(OC)c(C(=O)NC(C)c4cccc(C(F)(F)F)c4)c3)ccc12 (stereo not shown) [Example 101, 6-[6-methoxy-5-({1-[3-(tri-fluoromethyl)phenyl]ethyl}-carbamoyl)pyridin-3-yl]-N-methyl-1H-indazole-3-carbox-amide] |  | 4.5 | 19
7 | CNC(=O)c1n[nH]c2cc(-c3cnc(OC)c(C(=O)NCC[C@H](O)c4ccc(Cl)cc4)c3)cc(F)c12 [Example 145, 6-(5-{[(3S)-3-(4-chloro-phenyl)-3-hydroxypropyl]-carbamoyl}-6-methoxy-pyridin-3-yl)-4-fluoro-N-methyl-1H-indazole-3-carboxamide] | 200 | 9.6 | 
8 | CNC(=O)c1n[nH]c2cc(-c3cnc(OC)c(C(=O)NCc4cccnc4OC)c3)ccc12 [Example 94, 6-(6-methoxy-5-{[(2-methoxy-pyridin-3-yl)methyl]carbam-oyl}pyridin-3-yl)-N-methyl-1H-indazole-3-carboxamide, TFA] |  | 9.9 | 96
9 | CCN(CC)C(=O)C1CCCC(NC(=O)c2cc(-c3ccc4c(C(=O)NC)n[nH]c4c3)cnc2OC)C1 (stereo not shown) [Example 121, 6-(5-{[3-(diethylcarbamoyl)-cyclohexyl]carbamoyl}-6-methoxypyridin-3-yl)-N-methyl-1H-indazole-3-carbox-amide] |  | 6.1 | 7.5
10 | CCOC(=O)C(C)(C)CNC(=O)c1cc(-c2ccc3c(C(=O)NC)n[nH]c3c2)cnc1OC [Example 88, ethyl 3-({2-methoxy-5-[3-(methylcarbamoyl)-1H-indazol-6-yl]pyridin-3-yl}-formamido)-2,2-dimethyl-propanoate] | 250 | 52 | 
11 | CCCN(CC1CC1)C(=O)C1CCCC(NC(=O)c2cc(-c3ccc4c(C(=O)NC)n[nH]c4c3)cnc2OC)C1 (stereo not shown) [Example 123, 6-[5-({3-[(cyclopropylmethyl)-(propyl)carbamoyl]cyclohexyl}-carbamoyl)-6-methoxypyridin-3-yl]-N-methyl-1H-indazole-3-carboxamide] | 75 | 21 | 
12 | [2H]C([2H])([2H])Oc1ncc(-c2ccc3c(C(=O)NC4CC4)n[nH]c3c2)cc1C(=O)N[C@H](C)c1cccc(OC(F)(F)F)c1 [Example 202, N-cyclopropyl-6-[6-(deutero)-methoxy-5-{[(1R)-1-[3-(trifluoro-methoxy)phenyl]ethyl]carbam-oyl}pyridin-3-yl]-1H-indazole-3-carboxamide] | 53 | 36 | 
13 | [2H]C([2H])([2H])Oc1ncc(-c2ccc3c(C(=O)NCC4CC4)n[nH]c3c2)cc1C(=O)NC(C)c1ccccc1OC(F)(F)F (stereo not shown) [Example 168, N-(cyclopropylmethyl)-6-[6-(deutero)methoxy-5-({1-[2-(tri-fluoromethoxy)phenyl]ethyl}-carbamoyl)pyridin-3-yl]-1H-indazole-3-carboxamide] | 17 | 38 | 
14 | [2H]C([2H])([2H])C([2H])([2H])NC(=O)c1n[nH]c2cc(-c3cnc(OC)c(C(=O)NCc4ccccc4OC(F)(F)F)c3)ccc12 [Example 183, N-[(1,1,2,2,2-deutero)ethyl]-6-[6-methoxy-5-({[2-(trifluoro-methoxy)phenyl]methyl}carbam-oyl)pyridin-3-yl]-1H-indazole-3-carboxamide] | 15 | 5.9 | 
15 | COc1ncc(-c2ccc3c(C(=O)NC4CCC(O)CC4)n[nH]c3c2)cc1C(=O)NCc1ccccc1OC(F)(F)F (stereo not shown) [Example 189, 6-[6-methoxy-5-({[2-(trifluoro-methoxy)phenyl]methyl}-carbamoyl)pyridin-3-yl]-N-[(1r,4r)-4-hydroxycyclohexyl]-1H-indazole-3-carboxamide] | 30 | 9.6 | 
16 | [2H]C([2H])([2H])NC(=O)c1n[nH]c2cc(-c3cnc(OC)c(C(=O)NCCC(=O)OC(C)(C)C)c3)ccc12 [Example 150, tert-butyl 3-[(2-methoxy-5-{3-[(deutero)methylcarbamoyl]-1H-indazol-6-yl}pyridin-3-yl)-formamido]propanoate] | 110 | 32 | 
17 | CCNC(=O)c1n[nH]c2cc(-c3cnc(OC)c(C(=O)N[C@H](C)c4cccc(OC(F)(F)F)c4)c3)ccc12 [Example 232, N-[(1,1,2,2,2-deutero)ethyl]-6-[6-(deutero)methoxy-5-{[(1R)-1-[3-(trifluoromethoxy)phenyl](2,2,2-deutero)ethyl]carbamoyl}pyridin-3-yl]-1H-indazole-3-carboxamide] |  | 33 | 26
18 | [2H]C([2H])([2H])Oc1ncc(-c2ccc3c(C(=O)NCC(C)(C)F)n[nH]c3c2)cc1C(=O)N[C@@H]1CN(C(=O)C2CC(F)(F)C2)C[C@@H]1F [Example 193, 6-(5-{[(3R,4S)-1-(3,3-difluorocyclo-butanecarbonyl)-4-fluoropyrrolidin-3-yl]carbamoyl}-6-(deutero)methoxy-pyridin-3-yl)-N-(2-fluoro-2-methyl-propyl)-1H-indazole-3-carboxamide] | 480 | 260 | 
19 | [2H]C([2H])([2H])NC(=O)c1n[nH]c2cc(-c3cnc(OC([2H])([2H])[2H])c(C(=O)N[C@@H]4CN(C(=O)C5CC(F)(F)C5)C[C@@H]4F)c3)ccc12 [Example 12, 6-(5-(((3R,4S)-1-(3,3-difluorocyclobutanecarbonyl)-4-fluoropyrrolidin-3-yl)carbamoyl)-6-methoxyd3-pyridin-3-yl)-N-methyl d3-1H-indazole-3-carboxamide] | 400 | 42 | 
20 | CCNC(=O)c1n[nH]c2cc(-c3cnc(OC)c(C(=O)NCc4ccccc4OC(F)(F)F)c3)ccc12 [Example 170, N-ethyl-6-[6-methoxy-5-({[2-(trifluoromethoxy)phenyl]-methyl}carbamoyl)pyridin-3-yl]-1H-indazole-3-carboxamide] | 23 | 7.9 | 
21 | CCCNC(=O)c1n[nH]c2cc(-c3cnc(OC)c(C(=O)NCc4ccccc4OC(F)(F)F)c3)ccc12 [Example 176, 6-[6-methoxy-5-({[2-(trifluoro-methoxy)phenyl]methyl}carbam-oyl)pyridin-3-yl]-N-propyl-1H-indazole-3-carboxamide] | 16 | 10 | 
22 | CNC(=O)c1n[nH]c2cc(-c3cnc(OC)c(C(=O)NC4CCCC(C(=O)N5CCCC5)C4)c3)ccc12 (stereo not shown) [Example 99, 6-(6-methoxy-5-{[3-(pyrrol-idine-1-carbonyl)cyclohexyl]-carbamoyl}pyridin-3-yl)-N-methyl-1H-indazole-3-carbox-amide] |  | 11 | 14
23 | CNC(=O)c1n[nH]c2cc(-c3cnc(OC)c(C(=O)NC4CCCC(C(=O)N(C)C5CC5)C4)c3)ccc12 (stereo not shown) [Example 125, 6-[5-({3-[cyclopropyl(methyl)-carbamoyl]cyclohexyl}carbam-oyl)-6-methoxypyridin-3-yl]-N-methyl-1H-indazole-3-carbox-amide] |  | 12 | 8.8
24 | [2H]C([2H])([2H])Oc1ncc(-c2ccc3c(C(=O)NC([2H])([2H])C([2H])([2H])[2H])n[nH]c3c2)cc1C(=O)N[C@H](c1cc(OC(F)(F)F)ccc1F)C([2H])([2H])[2H] [Example 1] | 6.1 | 17 | 
25 | CNC(=O)c1n[nH]c2cc(-c3cnc(OC)c(C(=O)NCc4ccccc4OC(C)C)c3)ccc12 [Example 93, 6-[6-methoxy-5-({[2-(propan-2-yloxy)phenyl]methyl}-carbamoyl)pyridin-3-yl]-N-methyl-1H-indazole-3-carbox-amide] |  | 1.3 | 8.3
26 | CNC(=O)c1n[nH]c2cc(-c3cc(C(=O)NC(C)c4cccc(OC(F)(F)F)c4)c(C)nc3C)ccc12 (single isomer, unassigned) [Example 163, 6-[2,6-dimethyl-5-({1-[3-(trifluoromethoxy)phenyl]-ethyl}carbamoyl)pyridin-3-yl]-N-methyl-1H-indazole-3-carboxamide] |  | 47 | 180

Source: patent US12172975B2, “1H-indazole carboxamides as receptor-interacting protein kinase 1 inhibitors (RIPK1)” (BRISTOL-MYERS SQUIBB COMPANY, priority 2018, dated 2024)
